According to patent US10266549B2, “ULK1 inhibitors and methods using same” (SALK INSTITUTE FOR BIOLOGICAL STUDIES, priority 2014, dated 2019):

molecular target: ULK1 (Homo sapiens (Human), UniProt O75385); assay: ULK1 inhibition assay (Table 1); format: biochemical; conditions: * = tested as a mixture of regioisomers
Sequence (O75385 whole entry, species assumed): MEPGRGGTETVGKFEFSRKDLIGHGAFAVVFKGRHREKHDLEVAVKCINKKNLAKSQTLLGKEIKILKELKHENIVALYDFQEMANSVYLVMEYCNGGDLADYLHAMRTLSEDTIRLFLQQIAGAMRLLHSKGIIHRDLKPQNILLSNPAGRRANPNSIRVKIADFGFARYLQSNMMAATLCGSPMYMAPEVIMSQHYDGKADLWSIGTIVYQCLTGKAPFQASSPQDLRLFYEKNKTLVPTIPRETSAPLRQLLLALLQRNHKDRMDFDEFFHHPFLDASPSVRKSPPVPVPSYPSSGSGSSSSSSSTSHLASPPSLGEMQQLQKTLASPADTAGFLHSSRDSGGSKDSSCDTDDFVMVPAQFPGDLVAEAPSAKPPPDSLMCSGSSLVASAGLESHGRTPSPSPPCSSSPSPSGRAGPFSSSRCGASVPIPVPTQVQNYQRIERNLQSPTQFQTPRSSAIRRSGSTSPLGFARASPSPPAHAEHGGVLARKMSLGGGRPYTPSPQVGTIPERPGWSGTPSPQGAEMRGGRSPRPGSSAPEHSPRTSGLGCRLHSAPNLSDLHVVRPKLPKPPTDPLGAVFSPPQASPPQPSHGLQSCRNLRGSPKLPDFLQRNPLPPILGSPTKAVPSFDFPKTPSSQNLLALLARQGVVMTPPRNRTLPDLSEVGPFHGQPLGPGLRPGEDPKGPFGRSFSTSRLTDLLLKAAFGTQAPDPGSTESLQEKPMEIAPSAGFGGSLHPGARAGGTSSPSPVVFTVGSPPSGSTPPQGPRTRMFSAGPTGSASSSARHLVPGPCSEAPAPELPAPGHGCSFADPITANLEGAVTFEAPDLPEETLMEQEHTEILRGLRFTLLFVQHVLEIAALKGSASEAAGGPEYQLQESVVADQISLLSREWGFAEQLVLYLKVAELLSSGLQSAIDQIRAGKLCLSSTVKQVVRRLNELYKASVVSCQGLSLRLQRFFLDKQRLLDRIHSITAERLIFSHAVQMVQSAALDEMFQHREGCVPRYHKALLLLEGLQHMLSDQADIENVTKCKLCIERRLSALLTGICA

CNC(=O)c1cccc(Oc2nc(Nc3ccc4c(c3)CCC(=O)N4)ncc2C(F)(F)F)c1 [compound 122, N-methyl-3-((2-((2-oxo-1,2,3,4-tetrahydroquinolin-6-yl)amino)-5-(trifluoromethyl)pyrimidin-4-yl)oxy)benzamide] was tested. Which IC50 did it give?
The IC50 was 200 to 2000 nM.

With COc1ccc(Nc2nc(Nc3cc(OC)c(OC)c(OC)c3)ncc2Cl)cn1 [compound 24, 5-Chloro-N^4-(6-methoxypyridin-3-yl)-N^2-(3,4,5-trimethoxyphenyl)pyrimidine-2,4-diamine] as the molecule, how does the IC50 read?
The IC50 was under 200 nM.

How did the IC50 turn out when CNS(=O)(=O)c1ccccc1Nc1nc(Nc2ccc(N3CCOCC3)cc2OC)ncc1Br [compound 75, 2-(5-Bromo-2-(2-methoxy-4-morpholinophenylamino)pyrimidin-4-ylamino)-N-methylbenzenesulfonamide] was run?
Its IC50 is 200 to 2000 nM.

Which IC50 does the source give for FC(F)(F)c1cnc(Nc2ccc3c(c2)OCO3)nc1Nc1ccc2c(c1)OCO2 [124c, N^2,N^4-bis(benzo[d][1,3]dioxol-5-yl)-5-(trifluoromethyl)pyrimidine-2,4-diamine] here?
The IC50 was under 200 nM.

CNC(=O)c1ccccc1Nc1nc(Nc2ccc3c(c2)CC(=O)N3)ncc1Cl [compound 21, 2-(5-Chloro-2-(2-oxoindolin-5-ylamino)pyrimidin-4-ylamino)-N-methylbenzamide] was tested. Which IC50 did it give?
The IC50 was under 200 nM.

CNC(=O)c1ccccc1Nc1nc(Nc2ccc(N3CCOCC3)cc2OC)ncc1Br [compound 13, 2-(5-Bromo-2-(2-methoxy-4-morpholinophenylamino)pyrimidin-4-ylamino)-N-methylbenzamide] was tested. Which IC50 did it give?
Its IC50 is 200 to 2000 nM.

For Cc1cnc(Nc2ccc3c(c2)CCC(=O)N3)nc1NCc1cccc(S(C)(=O)=O)c1 [compound 67, 6-((5-Methyl-4-((3-(methylsulfonyl)benzyl)amino)pyrimidin-2-yl)amino)-3,4-dihydroquinolin-2(1H)-one], which IC50 is on record?
Its IC50 is over 2000 nM.

CNC(=O)c1ccccc1Oc1nc(Nc2ccccc2)ncc1Br [compound 111, 2-((5-bromo-2-(phenylamino)pyrimidin-4-yl)oxy)-N-methyl benzamide] was tested. Which IC50 did it give?
Its IC50 is over 2000 nM.

Which IC50 does the source give for CNC(=O)c1ccccc1Nc1nc(Nc2ccc3c(c2)CCC(=O)N3)ncc1Cl [compound 19, 2-(5-Chloro-2-(2-oxo-1,2,3,4-tetrahydroquinolin-6-ylamino)pyrimidin-4-ylamino)-N-methylbenzamide] here?
The IC50 was under 200 nM.

For O=C1CCc2cc(Nc3ncc(C(F)(F)F)c(OCc4ccccc4)n3)ccc2N1 [compound 81, 6-(4-(Benzyloxy)-5-(trifluoromethyl)pyrimidin-2-ylamino)-3,4-dihydroquinolin-2(1H)-one], which IC50 is on record?
The IC50 was under 200 nM.

Which IC50 does the source give for CNC(=O)c1ccccc1Nc1nc(Nc2cc(OC)c(OC)c(OC)c2)ncc1Cl [compound 15, 2-(5-Chloro-2-(3,4,5-trimethoxyphenylamino)pyrimidin-4-ylamino)-N-methylbenzamide] here?
The IC50 was under 200 nM.

COc1cc(Nc2ncc(Br)c(Nc3ccccn3)n2)cc(OC)c1OC [compound 22, Bromo-N^4-(pyridin-2-yl)-N^2-(3,4,5-trimethoxyphenyl) pyrimidine-2,4-diamine] was tested. Which IC50 did it give?
The IC50 was under 200 nM.

With Nc1ncc(C(F)(F)F)c(Nc2cnc3[nH]ccc3c2)n1 [181b, N4-(1H-pyrrolo[2,3-b]pyridin-5-yl)-5-(trifluoromethyl)pyrimidine-2,4-diamine] as the molecule, how does the IC50 read?
Its IC50 is 200 to 2000 nM.

With CNC(=O)c1ccccc1Oc1nc(Nc2ccc(C)c(Br)c2)ncc1C(F)(F)F [compound 102, 2-((2-((3-bromo-4-methylphenyl)amino)-5-(trifluoromethyl)pyrimidin-4-yl)oxy)-N-methylbenzamide] as the molecule, how does the IC50 read?
Its IC50 is over 2000 nM.

CNC(=O)c1ccccc1Oc1nc(Nc2ccccc2OC)ncc1C(F)(F)F [compound 103, 2-((2-((2-methoxyphenyl)amino)-5-(trifluoromethyl)pyrimidin-4-yl)oxy)-N-methylbenzamide] was tested. Which IC50 did it give?
Its IC50 is over 2000 nM.

For FC(F)(F)c1cnc(Nc2ccc3c(c2)OCO3)nc1NC1CCC1 [168b, N^2-(benzo[d][1,3]dioxol-5-yl)-N^4-cyclobutyl-5-(trifluoromethyl)pyrimidine-2,4-diamine], which IC50 is on record?
The IC50 was 200 to 2000 nM.

How did the IC50 turn out when O=C1CCc2cc(Nc3ncc(C(F)(F)F)c(Nc4ccc5c(c4)CCC5)n3)ccc2N1 [compound 129, 6-((4-((2,3-dihydro-1H-inden-5-yl)amino)-5-(trifluoromethyl)pyrimidin-2-yl)amino)-3,4-dihydroquinolin-2(1H)-one] was run?
Its IC50 is under 200 nM.

How did the IC50 turn out when FC(F)(F)c1cnc(NC2CCC2)nc1Nc1cnc2[nH]ccc2c1 [161b, N^2-cyclobutyl-N^4-(1H-pyrrolo[2,3-b]pyridin-5-yl)-5-(trifluoromethyl)pyrimidine-2,4-diamine] was run?
The IC50 was under 200 nM.

With O=C1CCc2cc(Nc3ncc(Br)c(Nc4ccccn4)n3)ccc2N1 [compound 155, 6-((5-bromo-4-(pyridin-2-ylamino)pyrimidin-2-yl)amino)-3,4-dihydroquinolin-2(1H)-one] as the molecule, how does the IC50 read?
The IC50 was under 200 nM.

For CNC(=O)c1ccccc1Oc1nc(Nc2ccc(Cl)c(Cl)c2)ncc1C(F)(F)F [108a, 2-((2-((3,4-dichlorophenyl)amino)-5-(trifluoromethyl)pyrimidin-4-yl)oxy)-N-methylbenzamide], which IC50 is on record?
Its IC50 is over 2000 nM.

How did the IC50 turn out when COCCNc1ncc(C(F)(F)F)c(Nc2ccc3c(c2)CCC(=O)N3)n1 [151b, 6-((2-((2-methoxyethyl)amino)-5-(trifluoromethyl)pyrimidin-4-yl)amino)-3,4-dihydroquinolin-2(1H)-one] was run?
Its IC50 is under 200 nM.

For FC(F)(F)c1cnc(Nc2cnc3[nH]ccc3c2)nc1NC1CC1 [152a, N^4-cyclopropyl-N^2-(1H-pyrrolo[2,3-b]pyridin-5-yl)-5-(trifluoromethyl)pyrimidine-2,4-diamine], which IC50 is on record?
Its IC50 is under 200 nM.

How did the IC50 turn out when O=C1CCc2cc(Nc3ncc(Br)c(NC4CC4)n3)ccc2N1 [compound 159, 6-((5-bromo-4-(cyclopropylamino)pyrimidin-2-yl)amino)-3,4-dihydroquinolin-2(1H)-one] was run?
Its IC50 is under 200 nM.

Which IC50 does the source give for CNC(=O)c1ccccc1Nc1nc(Nc2ccc3c(c2)CCC(=O)N3)ncc1Br [compound 20, 2-((5-Bromo-2-((2-oxo-1,2,3,4-tetrahydroquinolin-6-yl)amino)pyrimidin-4-yl)amino)-N-methylbenzamide] here?
The IC50 was under 200 nM.

For Nc1nc(Nc2ccc3c(c2)OCO3)ncc1C(F)(F)F [165b, N^2-(benzo[d][1,3]dioxol-5-yl)-5-(trifluoromethyl)pyrimidine-2,4-diamine], which IC50 is on record?
The IC50 was 200 to 2000 nM.

For Cc1cccc(Oc2nc(Nc3ccc4c(c3)CCC(=O)N4)ncc2C(F)(F)F)c1C [compound 83, 6-((4-(2,3-Dimethylphenoxy)-5-(trifluoromethyl)pyrimidin-2-yl)amino)-3,4-dihydroquinolin-2(1H)-one], which IC50 is on record?
Its IC50 is under 200 nM.

How did the IC50 turn out when CCCCOc1nc(Nc2cc(OC)c(OC)c(OC)c2)ncc1Br [compound 173, 5-bromo-4-butoxy-N-(3,4,5-trimethoxyphenyl)pyrimidin-2-amine] was run?
The IC50 was under 200 nM.

CNC(=O)c1ccccc1Nc1nc(Nc2ccccc2Cl)ncc1Cl [compound 74, 2-(5-Chloro-2-(2-chlorophenylamino)pyrimidin-4-ylamino)-N-methylbenzamide] was tested. Which IC50 did it give?
Its IC50 is 200 to 2000 nM.

With O=C1CCc2cc(Nc3ncc(C(F)(F)F)c(NCc4ccccc4)n3)ccc2N1 [compound 43, 6-(4-(Benzylamino)-5-(trifluoromethyl)pyrimidin-2-ylamino)-3,4-dihydroquinolin-2(1H)-one] as the molecule, how does the IC50 read?
Its IC50 is under 200 nM.

For COCCNc1nc(Nc2ccc3c(c2)CCC(=O)N3)ncc1C(F)(F)F [151a, 6-((4-((2-methoxyethyl)amino)-5-(trifluoromethyl)pyrimidin-2-yl)amino)-3,4-dihydroquinolin-2(1H)-one], which IC50 is on record?
The IC50 was under 200 nM.

How did the IC50 turn out when O=C1CCc2cc(Nc3ncc(Cl)c(Nc4ccc5c(c4)CCC(=O)N5)n3)ccc2N1 [compound 134, 6,6′-((5-chloropyrimidine-2,4-diyl)bis(azanediyl))bis(3,4-dihydroquinolin-2(1H)-one)] was run?
The IC50 was under 200 nM.

With O=C1CCc2cc(Nc3ncc(C(F)(F)F)c(Nc4cccc5ccccc45)n3)ccc2N1 [126a, 6-((4-(naphthalen-1-ylamino)-5-(trifluoromethyl)pyrimidin-2-yl)amino)-3,4-dihydroquinolin-2(1H)-one] as the molecule, how does the IC50 read?
Its IC50 is 200 to 2000 nM.

O=C1CCc2cc(Nc3ncc(C(F)(F)F)c(SCc4ccccc4)n3)ccc2N1 [compound 62, 6-(4-(Benzylthio)-5-(trifluoromethyl)pyrimidin-2-ylamino)-3,4-dihydroquinolin-2(1H)-one] was tested. Which IC50 did it give?
The IC50 was under 200 nM.

For CNC(=O)c1ccccc1Oc1nc(Nc2cc(OC)ccc2C)ncc1C(F)(F)F [compound 101, 2-((2-((5-methoxy-2-methylphenyl)amino)-5-(trifluoromethyl)pyrimidin-4-yl)oxy)-N-methylbenzamide], which IC50 is on record?
The IC50 was over 2000 nM.

With FC(F)(F)c1cnc(Nc2ccc3c(c2)OCO3)nc1NCC1CC1 [167b, N^2-(benzo[d][1,3]dioxol-5-yl)-N^4-(cyclopropylmethyl)-5-(trifluoromethyl)pyrimidine-2,4-diamine] as the molecule, how does the IC50 read?
The IC50 was under 200 nM.

With O=C1CCc2cc(Nc3ncc(C(F)(F)F)c(C#Cc4ccccc4)n3)ccc2N1 [compound 64, 6-(4-(Phenylethynyl)-5-(trifluoromethyl)pyrimidin-2-ylamino)-3,4-dihydroquinolin-2(1H)-one] as the molecule, how does the IC50 read?
The IC50 was over 2000 nM.

Which IC50 does the source give for COc1ccc(Nc2nc(Nc3cc(OC)c(OC)c(OC)c3)ncc2C(F)(F)F)cn1 [compound 37, N^4-(6-Methoxypyridin-3-yl)-5-(trifluoromethyl)-N^2-(3,4,5-trimethoxyphenyl)pyrimidine-2,4-diamine] here?
The IC50 was under 200 nM.

With COc1ccc(C)c(Nc2ncc(Cl)c(Nc3ccc(OC)nc3)n2)c1 [compound 34, 5-Chloro-N^2-(5-methoxy-2-methylphenyl)-N^4-(6-methoxypyridin-3-yl)pyrimidine-2,4-diamine] as the molecule, how does the IC50 read?
Its IC50 is over 2000 nM.

COc1cccc(Nc2nc(Nc3ccc4c(c3)OCCO4)ncc2C(F)(F)F)c1 [compound 133, N^2-(2,3-dihydrobenzo[b][1,4]dioxin-6-yl)-N^4-(3-methoxyphenyl)-5-(trifluoromethyl)pyrimidine-2,4-diamine] was tested. Which IC50 did it give?
The IC50 was under 200 nM.

How did the IC50 turn out when COc1cnc(Nc2ccc3c(c2)CCC(=O)N3)nc1Nc1ccc2c(c1)CCC(=O)N2 [compound 135, 6,6′-((5-methoxypyrimidine-2,4-diyl)bis(azanediyl))bis(3,4-dihydroquinolin-2(1H)-one)] was run?
Its IC50 is over 2000 nM.

For FC(F)(F)c1cnc(NC2CC2)nc1NC1CC1 [compound 169, N^2,N^4-dicyclopropyl-5-(trifluoromethyl)pyrimidine-2,4-diamine], which IC50 is on record?
Its IC50 is over 2000 nM.
